# Assay results reported in patent US20230136600A1, “Method and device for screening antigen epitope polypeptide” (priority 2020, published 2023).
# Experiments:
# [1] = system: novel coronavirus (live coronavirus), vero cells; test: In-vitro live virus neutralization experiment with serum of immunized mice (CPE method); assay type: in vivo, SARS-CoV-2; conditions: Embodiment I: single peptide 100 μg + MF59 at Day 0, 14, 28, Balb/c mice, serum Day 35
# Balb/c mice = test: Polypeptide chip-based vaccine immunogenicity scoring system; assay type: in vivo; design: key to A2: whether the 95 percentile of the last sampling is increased compared with the end point: Y = rise; N = no rise; conditions: for A1: difference between a highest median and a D 0 median (95 percentile) / A2: whether the 95 percentile of the last sampling is increased compared with the end point: Mix1-10; for A: 95 percentile grouping number score / B: Mouse performance score: total score = 5; for C1: #A timing-sequence response peptide fragment set / C2: #B vaccine specificity peptide fragment set / C3: Intersection of A and B / C4: Percentage of the intersection in set B / C: Timing-sequence response and specificity score: value of the whole mix
# [2] = Embodiment III, polypeptide-KLH
# [3] = Embodiment III, polypeptide-KLH, A*3 + B*2 + C*1
# [4] = adjuvant AddaVax, 7 peptides co-immunized in mice
# [5] = adjuvant Adju-Phos, 7 peptides co-immunized in mice
# [6] = adjuvant Alhydrogel, 7 peptides co-immunized in mice
# [7] = adjuvant Imjet Alumn, 7 peptides co-immunized in mice
# [8] = adjuvant MA103A, 7 peptides co-immunized in mice
# [9] = adjuvant MA103B, 7 peptides co-immunized in mice
sequence,measurement,setting,value
KLDDKDPNFK (SARS-CoV-2) [SEQ ID NO:20],Neutralizing antibody positive rate (%),[1],20%
same,B1: D 0-D 14 95 percentile rise in the number of mice,Balb/c mice; [2],3
same,B2: D 0-D 21 95 percentile rise in the number of mice,Balb/c mice; [2],3
same,B3: D 14-D 21 95 percentile rise in the number of mice,Balb/c mice; [2],1
same,B4: D 21-D 28 95 percentile rise in the number of mice,Balb/c mice; [2],1
same,A1: difference between a highest median and a D 0 median (95 percentile),Balb/c mice; [2],0.08
same,A2: whether the 95 percentile of the last sampling is increased compared with the end point,Balb/c mice; [2],Y
same,Total single peptide,Balb/c mice; [3],14.8
same,A: 95 percentile grouping number score,Balb/c mice; [2],3.5
same,B: Mouse performance score,Balb/c mice; [2],1.9
same,C1: #A timing-sequence response peptide fragment set,Balb/c mice; [2],511
same,C2: #B vaccine specificity peptide fragment set,Balb/c mice; [2],364
same,C3: Intersection of A and B,Balb/c mice; [2],1
same,C4: Percentage of the intersection in set B,Balb/c mice; [2],0.275
same,C: Timing-sequence response and specificity score,Balb/c mice; [2],0.5
same,1) 95 percentile grouping number A,Balb/c mice; [4],0
same,1) 95 percentile grouping number A1,Balb/c mice; [4],0
same,2) Mouse performance B,Balb/c mice; [4],1.5
same,2) Mouse performance B1,Balb/c mice; [4],1
same,2) Mouse performance B2,Balb/c mice; [4],0
same,2) Mouse performance B3,Balb/c mice; [4],3
same,3) Timing-sequence response and specificity C,Balb/c mice; [4],0
same,3) Timing-sequence response and specificity C1,Balb/c mice; [4],237
same,3) Timing-sequence response and specificity C2,Balb/c mice; [4],1244
same,3) Timing-sequence response and specificity C3,Balb/c mice; [4],0
same,3) Timing-sequence response and specificity C4,Balb/c mice; [4],0.000
same,Total single peptide,Balb/c mice; [4],3
same,1) 95 percentile grouping number A,Balb/c mice; [5],1.5
same,1) 95 percentile grouping number A1,Balb/c mice; [5],0.025
same,2) Mouse performance B,Balb/c mice; [5],1.4
same,2) Mouse performance B1,Balb/c mice; [5],2
same,2) Mouse performance B2,Balb/c mice; [5],2
same,2) Mouse performance B3,Balb/c mice; [5],1
same,3) Timing-sequence response and specificity C,Balb/c mice; [5],0
same,3) Timing-sequence response and specificity C1,Balb/c mice; [5],203
same,3) Timing-sequence response and specificity C2,Balb/c mice; [5],1244
same,3) Timing-sequence response and specificity C3,Balb/c mice; [5],0
same,3) Timing-sequence response and specificity C4,Balb/c mice; [5],0.000
same,Total single peptide,Balb/c mice; [5],7.3
same,1) 95 percentile grouping number A,Balb/c mice; [6],0
same,1) 95 percentile grouping number A1,Balb/c mice; [6],0
same,2) Mouse performance B,Balb/c mice; [6],1.6
same,2) Mouse performance B1,Balb/c mice; [6],2
same,2) Mouse performance B2,Balb/c mice; [6],1
same,2) Mouse performance B3,Balb/c mice; [6],2
same,3) Timing-sequence response and specificity C,Balb/c mice; [6],1
same,3) Timing-sequence response and specificity C1,Balb/c mice; [6],123
same,3) Timing-sequence response and specificity C2,Balb/c mice; [6],1244
same,3) Timing-sequence response and specificity C3,Balb/c mice; [6],2
same,3) Timing-sequence response and specificity C4,Balb/c mice; [6],0.161
same,Total single peptide,Balb/c mice; [6],3.7
same,1) 95 percentile grouping number A,Balb/c mice; [7],0
same,1) 95 percentile grouping number A1,Balb/c mice; [7],0
same,2) Mouse performance B,Balb/c mice; [7],1.7
same,2) Mouse performance B1,Balb/c mice; [7],1
same,2) Mouse performance B2,Balb/c mice; [7],1
same,2) Mouse performance B3,Balb/c mice; [7],3
same,3) Timing-sequence response and specificity C,Balb/c mice; [7],1
same,3) Timing-sequence response and specificity C1,Balb/c mice; [7],100
same,3) Timing-sequence response and specificity C2,Balb/c mice; [7],1244
same,3) Timing-sequence response and specificity C3,Balb/c mice; [7],3
same,3) Timing-sequence response and specificity C4,Balb/c mice; [7],0.241
same,Total single peptide,Balb/c mice; [7],3.9
same,1) 95 percentile grouping number A,Balb/c mice; [8],1.5
same,1) 95 percentile grouping number A1,Balb/c mice; [8],0.015
same,2) Mouse performance B,Balb/c mice; [8],2.4
same,2) Mouse performance B1,Balb/c mice; [8],2
same,2) Mouse performance B2,Balb/c mice; [8],3
same,2) Mouse performance B3,Balb/c mice; [8],3
same,3) Timing-sequence response and specificity C,Balb/c mice; [8],1
same,3) Timing-sequence response and specificity C1,Balb/c mice; [8],260
same,3) Timing-sequence response and specificity C2,Balb/c mice; [8],1244
same,3) Timing-sequence response and specificity C3,Balb/c mice; [8],3
same,3) Timing-sequence response and specificity C4,Balb/c mice; [8],0.241
same,Total single peptide,Balb/c mice; [8],9.8
same,1) 95 percentile grouping number A,Balb/c mice; [9],1
same,1) 95 percentile grouping number A1,Balb/c mice; [9],0.02
same,2) Mouse performance B,Balb/c mice; [9],2.1
same,2) Mouse performance B1,Balb/c mice; [9],3
same,2) Mouse performance B2,Balb/c mice; [9],2
same,2) Mouse performance B3,Balb/c mice; [9],2
same,3) Timing-sequence response and specificity C,Balb/c mice; [9],0
same,3) Timing-sequence response and specificity C1,Balb/c mice; [9],153
same,3) Timing-sequence response and specificity C2,Balb/c mice; [9],1244
same,3) Timing-sequence response and specificity C3,Balb/c mice; [9],0
same,3) Timing-sequence response and specificity C4,Balb/c mice; [9],0.000
same,Total single peptide,Balb/c mice; [9],7.2
MEVTPSGTWLTY (SARS-CoV-2) [SEQ ID NO:22],Neutralizing antibody positive rate (%),[1],20%
same,B1: D 0-D 14 95 percentile rise in the number of mice,Balb/c mice; [2],3
same,B2: D 0-D 21 95 percentile rise in the number of mice,Balb/c mice; [2],3
same,B3: D 14-D 21 95 percentile rise in the number of mice,Balb/c mice; [2],3
same,B4: D 21-D 28 95 percentile rise in the number of mice,Balb/c mice; [2],0
same,A1: difference between a highest median and a D 0 median (95 percentile),Balb/c mice; [2],0.07
same,A2: whether the 95 percentile of the last sampling is increased compared with the end point,Balb/c mice; [2],N
same,Total single peptide,Balb/c mice; [3],10.7
same,A: 95 percentile grouping number score,Balb/c mice; [2],2
same,B: Mouse performance score,Balb/c mice; [2],2.1
same,C1: #A timing-sequence response peptide fragment set,Balb/c mice; [2],352
same,C2: #B vaccine specificity peptide fragment set,Balb/c mice; [2],541
same,C3: Intersection of A and B,Balb/c mice; [2],1
same,C4: Percentage of the intersection in set B,Balb/c mice; [2],0.185
same,C: Timing-sequence response and specificity score,Balb/c mice; [2],0.5
same,1) 95 percentile grouping number A,Balb/c mice; [4],4
same,1) 95 percentile grouping number A1,Balb/c mice; [4],0.05
same,2) Mouse performance B,Balb/c mice; [4],2.9
same,2) Mouse performance B1,Balb/c mice; [4],3
same,2) Mouse performance B2,Balb/c mice; [4],4
same,2) Mouse performance B3,Balb/c mice; [4],3
same,3) Timing-sequence response and specificity C,Balb/c mice; [4],0
same,3) Timing-sequence response and specificity C1,Balb/c mice; [4],237
same,3) Timing-sequence response and specificity C2,Balb/c mice; [4],1244
same,3) Timing-sequence response and specificity C3,Balb/c mice; [4],0
same,3) Timing-sequence response and specificity C4,Balb/c mice; [4],0.000
same,Total single peptide,Balb/c mice; [4],17.8
same,1) 95 percentile grouping number A,Balb/c mice; [5],5
same,1) 95 percentile grouping number A1,Balb/c mice; [5],0.075
same,2) Mouse performance B,Balb/c mice; [5],2.1
same,2) Mouse performance B1,Balb/c mice; [5],3
same,2) Mouse performance B2,Balb/c mice; [5],4
same,2) Mouse performance B3,Balb/c mice; [5],1
same,3) Timing-sequence response and specificity C,Balb/c mice; [5],0
same,3) Timing-sequence response and specificity C1,Balb/c mice; [5],203
same,3) Timing-sequence response and specificity C2,Balb/c mice; [5],1244
same,3) Timing-sequence response and specificity C3,Balb/c mice; [5],0
same,3) Timing-sequence response and specificity C4,Balb/c mice; [5],0.000
same,Total single peptide,Balb/c mice; [5],19.2
same,1) 95 percentile grouping number A,Balb/c mice; [6],2
same,1) 95 percentile grouping number A1,Balb/c mice; [6],0.03
same,2) Mouse performance B,Balb/c mice; [6],1.7
same,2) Mouse performance B1,Balb/c mice; [6],3
same,2) Mouse performance B2,Balb/c mice; [6],2
same,2) Mouse performance B3,Balb/c mice; [6],1
same,3) Timing-sequence response and specificity C,Balb/c mice; [6],1
same,3) Timing-sequence response and specificity C1,Balb/c mice; [6],123
same,3) Timing-sequence response and specificity C2,Balb/c mice; [6],1244
same,3) Timing-sequence response and specificity C3,Balb/c mice; [6],2
same,3) Timing-sequence response and specificity C4,Balb/c mice; [6],0.161
same,Total single peptide,Balb/c mice; [6],9.9
same,1) 95 percentile grouping number A,Balb/c mice; [7],5
same,1) 95 percentile grouping number A1,Balb/c mice; [7],0.145
same,2) Mouse performance B,Balb/c mice; [7],2.3
same,2) Mouse performance B1,Balb/c mice; [7],5
same,2) Mouse performance B2,Balb/c mice; [7],4
same,2) Mouse performance B3,Balb/c mice; [7],0
same,3) Timing-sequence response and specificity C,Balb/c mice; [7],1
same,3) Timing-sequence response and specificity C1,Balb/c mice; [7],100
same,3) Timing-sequence response and specificity C2,Balb/c mice; [7],1244
same,3) Timing-sequence response and specificity C3,Balb/c mice; [7],3
same,3) Timing-sequence response and specificity C4,Balb/c mice; [7],0.241
same,Total single peptide,Balb/c mice; [7],20.1
same,1) 95 percentile grouping number A,Balb/c mice; [8],5
same,1) 95 percentile grouping number A1,Balb/c mice; [8],0.11
same,2) Mouse performance B,Balb/c mice; [8],2.5
same,2) Mouse performance B1,Balb/c mice; [8],5
same,2) Mouse performance B2,Balb/c mice; [8],5
same,2) Mouse performance B3,Balb/c mice; [8],0
same,3) Timing-sequence response and specificity C,Balb/c mice; [8],1
same,3) Timing-sequence response and specificity C1,Balb/c mice; [8],260
same,3) Timing-sequence response and specificity C2,Balb/c mice; [8],1244
same,3) Timing-sequence response and specificity C3,Balb/c mice; [8],3
same,3) Timing-sequence response and specificity C4,Balb/c mice; [8],0.241
same,Total single peptide,Balb/c mice; [8],20.5
same,1) 95 percentile grouping number A,Balb/c mice; [9],4.5
same,1) 95 percentile grouping number A1,Balb/c mice; [9],0.07
same,2) Mouse performance B,Balb/c mice; [9],3
same,2) Mouse performance B1,Balb/c mice; [9],4
same,2) Mouse performance B2,Balb/c mice; [9],5
same,2) Mouse performance B3,Balb/c mice; [9],2
same,3) Timing-sequence response and specificity C,Balb/c mice; [9],0
same,3) Timing-sequence response and specificity C1,Balb/c mice; [9],153
same,3) Timing-sequence response and specificity C2,Balb/c mice; [9],1244
same,3) Timing-sequence response and specificity C3,Balb/c mice; [9],0
same,3) Timing-sequence response and specificity C4,Balb/c mice; [9],0.000
same,Total single peptide,Balb/c mice; [9],19.5
